This note sets out measurements from patent publication US20090069320A1, “Substituted 4-Amino-Quinazoline Compounds with Metabotropic Glutamate Receptor Regulating Activity and Uses Thereof” (Gruenenthal GmbH, priority 2006, published 2009).

Counter-ions that a name gives are not always drawn.

T1 sequence (I3LUI7 19-1212): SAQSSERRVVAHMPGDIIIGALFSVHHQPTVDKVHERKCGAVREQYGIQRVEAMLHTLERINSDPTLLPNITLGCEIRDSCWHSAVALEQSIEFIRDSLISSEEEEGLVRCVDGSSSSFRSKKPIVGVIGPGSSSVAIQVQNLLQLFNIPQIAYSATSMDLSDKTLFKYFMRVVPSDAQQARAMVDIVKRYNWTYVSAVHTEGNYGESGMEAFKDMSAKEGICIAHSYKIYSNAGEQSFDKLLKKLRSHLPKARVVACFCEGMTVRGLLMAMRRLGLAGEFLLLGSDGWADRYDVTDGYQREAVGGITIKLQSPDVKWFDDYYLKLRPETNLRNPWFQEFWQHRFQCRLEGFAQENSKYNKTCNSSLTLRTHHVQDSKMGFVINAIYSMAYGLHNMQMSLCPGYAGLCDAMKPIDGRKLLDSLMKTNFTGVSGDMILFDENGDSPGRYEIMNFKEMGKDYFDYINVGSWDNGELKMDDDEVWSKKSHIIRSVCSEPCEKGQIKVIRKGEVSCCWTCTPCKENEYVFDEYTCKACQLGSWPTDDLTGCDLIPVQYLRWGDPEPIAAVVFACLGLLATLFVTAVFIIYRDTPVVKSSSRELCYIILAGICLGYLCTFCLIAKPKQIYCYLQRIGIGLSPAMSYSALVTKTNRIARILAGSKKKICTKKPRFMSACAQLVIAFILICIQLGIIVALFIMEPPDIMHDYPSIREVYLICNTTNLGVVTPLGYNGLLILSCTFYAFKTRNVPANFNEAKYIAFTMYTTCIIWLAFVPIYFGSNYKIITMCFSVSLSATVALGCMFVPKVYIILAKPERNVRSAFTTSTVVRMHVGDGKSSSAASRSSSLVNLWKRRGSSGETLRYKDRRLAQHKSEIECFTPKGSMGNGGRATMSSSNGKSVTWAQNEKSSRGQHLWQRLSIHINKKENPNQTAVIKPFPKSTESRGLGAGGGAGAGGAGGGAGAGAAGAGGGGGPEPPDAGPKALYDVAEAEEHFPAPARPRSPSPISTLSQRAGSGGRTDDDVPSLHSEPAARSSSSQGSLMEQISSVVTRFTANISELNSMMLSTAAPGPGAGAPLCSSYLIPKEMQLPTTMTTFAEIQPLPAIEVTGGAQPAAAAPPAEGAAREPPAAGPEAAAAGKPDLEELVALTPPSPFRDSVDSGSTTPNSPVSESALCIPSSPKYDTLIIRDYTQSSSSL

The first assay addresses T1, mGluR5 receptor (Sus scrofa, UniProt I3LUI7).
T1 construct: 450 μg of protein from brain homogenate with 5 nM ^3[H]-MPEP; from tissue; host or cells: pig brain halves without medulla, cerebellum and pons
The assay is described as follows: [3H]-MPEP mGluR5 receptor binding assay (pig brain homogenate). Conditions: 5 nM [3H]-MPEP, read-out: IC50 mGluR5 Receptor (pig) [^3H]-MPEP Bond. In outline: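 Compounds at 10 μM competed with 5 nM [3H]-MPEP for binding to pig brain membranes (450 μg protein) for 60 min at room temperature in pH 8.0 Hepes buffer. Bound radioactivity was collected on glass-fibre filters and read by β-counting, with 10 μM unlabelled MPEP giving non-specific binding.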
In general, IC50 refers to the midpoint of a concentration-inhibition curve. With `CS(=O)(=O)N(Cc1cccc(-c2ccc3ncnc(NC4CC4)c3c2)c1)C1CCCC1` [Example 210, N-cyclopentyl-N-(3-(4-(cyclopropylamino)quinazolin-6-yl)benzyl)methane sulfonamide], the IC50 was determined as 6070 nM.
For `O=C1COCC(=O)N1Cc1cc(-c2ccc3ncnc(NC4CC4)c3c2)ccc1F` [Example 189, 4-(5-(4-(cyclopropylamino)quinazolin-6-yl)-2-fluorobenzyl)morpholine-3,5-dione], the IC50 worked out at 210 nM.
On the same count and under the same terms, as for `CN(Cc1cccc(-c2ccc3ncnc(NC4CC4)c3c2)c1)C1CC1` [Example 891, N-cyclopropyl-6-(3-((cyclopropyl(methyl)amino)methyl)phenyl)quinazoline-4-amine], the figure is 5600 nM; as for `O=C(N(Cc1cc(-c2ccc3ncnc(NC4CC4)c3c2)ccc1F)C1CC1)C(F)(F)F` [Example 870, N-cyclopropyl-N-(5-(4-(cyclopropylamino)quinazolin-6-yl)-2-fluorobenzyl)-2,2,2-trifluoroacetamide], 10 nM.
Still for that read-out and setting: to `O=C1CCC(c2ccccc2)C(=O)N1Cc1cccc(-c2ccc3ncnc(NC4CC4)c3c2)c1` (stereo not shown) [Example 220, 1-[3-(4-cyclopropylamino-quinazolin-6-yl)-benzyl]-3-phenyl-piperidine-2,6-dione; hydrochloride] belongs 4250 nM; to `CS(=O)(=O)N(Cc1c(F)ccc(-c2ccc3ncnc(NC4CC4)c3c2)c1F)C1CC1` [Example 246, N-cyclopropyl-N-(3-(4-(cyclopropylamino)quinazolin-6-yl)-2,6-difluorobenzyl)methane sulfonamide], 350 nM; to `O=C(c1ccccc1)N(Cc1c(F)ccc(-c2ccc3ncnc(NC4CC4)c3c2)c1F)C1CC1` [Example 244, N-cyclopropyl-N-[3-(4-cyclopropylamino-quinazolin-6-yl)-2,6-difluoro-benzyl]-benzamide], 220 nM.
The same measure, in the same setting: to `O=C(c1ccccn1)N(Cc1cccc(-c2ccc3ncnc(NC4CC4)c3c2)c1)C1CC1` [Example 275, N-cyclopropyl-N-(3-(4-(cyclopropylamino)quinazolin-6-yl)benzyl) picolinamide] belongs 1380 nM; to `CC(C)NC(=O)N(Cc1cccc(-c2ccc3ncnc(NC4CC4)c3c2)c1)C1CC1` [Example 247, 1-cyclopropyl-1-[3-(4-cyclopropylamino-quinazolin-6-yl)-benzyl]-3-isopropyl-urea], 7340 nM; to `O=S(=O)(CC(F)(F)F)N(Cc1cccc(-c2ccc3ncnc(NC4CC4)c3c2)c1)C1CC1` [Example 225, N-cyclopropyl-N-(3-(4-(cyclopropylamino)quinazolin-6-yl)benzyl)-2,2,2-trifluoroethane sulfonamide], 1480 nM.

Staying with this assay, now noted: 10 μM compound, 5 nM [3H]-MPEP, read-out: % Inhibition of mGluR5 Receptor (pig) [^3H]-MPEP Bond at 10 μM.
As usually defined, the inhibition is the drop in the measured response relative to a control, in per cent. On to `O=C(c1cc2ccccc2cn1)N(Cc1cccc(-c2ccc3ncnc(NC4CC4)c3c2)c1)C1CC1` [Example 159, isoquinoline-3-carboxylic acid cyclopropyl-[3-(4-cyclopropylamino-quinazolin-6-yl)-benzyl]-amide], for which the inhibition at 10 µM was 85%.
With `CS(=O)(=O)N(Cc1cccc(-c2ccc3ncnc(NCCc4ccccc4)c3c2)c1)C1CC1` [Example 440, N-cyclopropyl-N-(3-(4-(phenethylamino)quinazolin-6-yl)benzyl)methane sulfonamide], the inhibition at 10 µM is 73%.
With `O=C(c1cc(Cl)cc(Cl)c1)N(Cc1cc(-c2ccc3ncnc(NC4CC4)c3c2)ccn1)C1CC1` [Example 750, 3,5-dichloro-N-cyclopropyl-N-((4-(4-(cyclopropylamino)quinazolin-6-yl)pyridin-2-yl)methyl)benzamide], the inhibition at 10 µM was 42%.
Still for that read-out and setting: as for `O=C(Cc1ccccn1)N(Cc1cccc(-c2ccc3ncnc(NC4CC4)c3c2)c1)C1CC1` [Example 174, N-cyclopropyl-N-[3-(4-cyclopropylamino-quinazolin-6-yl)-benzyl]-2-pyridin-2-yl-acetamide], the figure is 97%; as for `O=S(=O)(c1cccc2cccnc12)N(Cc1cc(-c2ccc3ncnc(NC4CC4)c3c2)ccc1F)C1CC1` [Example 415, N-cyclopropyl-N-(5-(4-(cyclopropylamino)quinazolin-6-yl)-2-fluorobenzyl)quinoline-8-sulfonamide], 53%; as for `Cc1cccc(CNc2ncnc3ccc(-c4cccc(CN(C(=O)c5cccnc5)C5CC5)c4)cc23)c1` [Example 411, N-cyclopropyl-N-(3-(4-(3-methylbenzylamino)quinazolin-6-yl)benzyl)nicotinamide], 34%.
For the molecule `CC(=O)N(Cc1cccc(-c2ccc3ncnc(NCCc4ccccc4)c3c2)c1)C1CC1` [Example 393, N-cyclopropyl-N-(3-(4-(phenethylamino)quinazolin-6-yl)benzyl)acetamide], the inhibition at 10 µM turned out to be 95%.
For `Cc1cc2ncnc(NC3CC3)c2cc1-c1cccc(CN(C(=O)c2ccc(C(F)(F)F)cc2F)C2CC2)c1` [Example 668, N-cyclopropyl-N-(3-(4-(cyclopropylamino)-7-methylquinazolin-6-yl)benzyl)-2-fluoro-4-(trifluoromethyl)benzamide], the inhibition at 10 µM came to 88%.
As for `Cc1cc2ncnc(NC3CC3)c2cc1-c1cccc(CN(C(=O)Cc2ccccc2)C2CC2)c1` [Example 661, N-cyclopropyl-N-(3-(4-(cyclopropylamino)-7-methylquinazolin-6-yl)benzyl)-2-phenylacetamide], the inhibition at 10 µM amounted to 89%.
The same measure, in the same setting: as for `O=C(c1ccccc1Cl)N(Cc1cccc(-c2ccc3ncnc(NC4CC4)c3c2)c1)C1CC1` [Example 172, 2-chloro-N-cyclopropyl-N-[3-(4-cyclopropylamino-quinazolin-6-yl)-benzyl]-benzamide], the figure is 99%.
For the molecule `Cc1nc(NC2CC2)c2cc(-c3ccc(F)c(CN(C(=O)c4cccc(F)c4)C4CC4)c3)ccc2n1` [Example 566, N-cyclopropyl-N-(5-(4-(cyclopropylamino)-2-methylquinazolin-6-yl)-2-fluorobenzyl)-3-fluorobenzamide], the inhibition at 10 µM was determined as 61%.
For `Cc1cc2ncnc(NC3CC3)c2cc1-c1cccc(CN(C(=O)c2cc(Cl)cc(Cl)c2)C2CC2)c1` [Example 692, 3,5-dichloro-N-cyclopropyl-N-(3-(4-(cyclopropylamino)-7-methylquinazolin-6-yl)benzyl)benzamide], the inhibition at 10 µM turned out to be 67%.
As for `Cc1cc(CNC2CC2)cc(-c2ccc3ncnc(NC4CC4)c3c2)c1` [Example 306, N-cyclopropyl-6-(3-((cyclopropylamino)methyl)-5-methylphenyl)quinazoline-4-amine], the inhibition at 10 µM turned out to be 33%.
For the molecule `O=C(c1ccccc1C(F)(F)F)N(Cc1cc(-c2ccc3ncnc(NC4CC4)c3c2)ccn1)C1CC1` [Example 749, N-cyclopropyl-N-((4-(4-(cyclopropylamino)quinazolin-6-yl)pyridin-2-yl)methyl)-2-(trifluoromethyl)benzamide], the inhibition at 10 µM came to 65%.
On the same count and under the same terms, to `COCC(=O)N(Cc1cccc(-c2ccc3ncnc(NCc4cccc(C)c4)c3c2)c1)C1CC1` [Example 434, N-cyclopropyl-2-methoxy-N-(3-(4-(3-methylbenzylamino)quinazolin-6-yl)benzyl)acetamide] belongs 62%; to `Cc1cc2ncnc(NC3CC3)c2cc1-c1cccc(CN(C2CC2)S(=O)(=O)c2cccs2)c1` [Example 737, N-cyclopropyl-N-(3-(4-(cyclopropylamino)-7-methylquinazolin-6-yl)benzyl)thiophene-2-sulfonamide], 74%.
The same measure, in the same setting: as for `O=C(O)CCC(=O)NCc1cccc(-c2ccc3ncnc(NCC(=O)O)c3c2)c1` [Example 330, 4-(3-(4-(carboxymethylamino)quinazolin-6-yl)benzylamino)-4-oxobutyric acid], the figure is 47%; as for `N#CCNCc1cccc(-c2ccc3ncnc(NC4CC4)c3c2)c1` [Example 320, 2-(3-(4-(cyclopropylamino)quinazolin-6-yl)benzylamino)acetonitrile], 72%.
On the same count and under the same terms, to `O=S(=O)(c1cccc2cccnc12)N(Cc1cc(-c2ccc3ncnc(NC4CC4)c3c2)ccn1)C1CC1` [Example 812, N-cyclopropyl-N-((4-(4-(cyclopropylamino)quinazolin-6-yl)pyridin-2-yl)methyl)quinoline-8-sulfonamide] belongs 73%; to `O=C(c1cc(Cl)cc(Cl)c1)N(Cc1cc(-c2ccc3ncnc(NC4CC4)c3c2)ccc1F)C1CC1` [Example 421, 3,5-dichloro-N-cyclopropyl-N-(5-(4-(cyclopropylamino)quinazolin-6-yl)-2-fluorobenzyl)benzamide], 81%; to `CCCC(=O)N(Cc1cccc(-c2ccc3ncnc(NC4CC4)c3c2)c1)C1CC1` [Example 168, N-cyclopropyl-N-[3-(4-cyclopropylamino-quinazolin-6-yl)-benzyl]-butyramide], 90%.
As for `CCCCC(=O)N(Cc1cccc(-c2cc(F)c3ncnc(NC4CC4)c3c2)c1)C1CC1` [Example 654, N-cyclopropyl-N-(3-(4-(cyclopropylamino)-8-fluoroquinazolin-6-yl)benzyl)pentanamide], the inhibition at 10 µM amounted to 82%.
Regarding `Cc1cccc(CNc2ncnc3ccc(-c4cccc(CN(C5CC5)S(C)(=O)=O)c4)cc23)c1` [Example 380, N-cyclopropyl-N-(3-(4-(3-methylbenzylamino)quinazolin-6-yl)benzyl)methane sulfonamide], the inhibition at 10 µM stood at 46%.
Take `O=S(=O)(Cc1ccccc1)N(Cc1cc(-c2ccc3ncnc(NC4CC4)c3c2)ccc1Cl)C1CC1` [Example 771, N-(2-chloro-5-(4-(cyclopropylamino)quinazolin-6-yl)benzyl)-N-cyclopropyl-1-phenylmethane sulfonamide]: the inhibition at 10 µM amounted to 80%.
